Test results published in publication PMC7358525, “Characterization of PF-6142, a Novel, Non-Catecholamine Dopamine Receptor D1 Agonist, in Murine and Nonhuman Primate Models of Dopaminergic Activation” (Frontiers in Pharmacology, 2020).

How the values were obtained:
Format in all cases: in vivo
mouse locomotor activity = test: Mouse locomotor activity (LMA)
Method: Locomotor activity data were measured by an automated infrared photo-beam system in sound attenuating chambers controlled by Versamax® software, provided by Accuscan Instruments Inc. (Columbus, Ohio), which quantified beam breaks similar to the methods used previously ([Xu et al., 2000]). To test D1 receptor selectivity in a pharmacologic model, C57BL/6J mice were habituated to the apparatus for 90 min, followed by pretreatment with vehicle or SCH-23390 (0.01, 0.032, 0.1 0.32, s.c.) and returned to the apparatus for 30 min. […] Data were compared against the vehicle group using a repeated measures one-way ANOVA with a Dunnett’s post-test. To test D1 receptor selectivity in a genetic model, DRD1a WT and knockout mice (D1 KO) were habituated to the apparatus for 90 min, pretreated with vehicle or SCH-23390 (0.032 mg/kg, s.c.) and returned to the apparatus for 30 min. […] Data were compared within genotype using a two-way ANOVA with a Dunnett’s post-hoc test versus vehicle treated group.

[1] = system: MK-801-disrupted paired-pulse facilitation; test: Paired-pulse facilitation (PPF), CA1/subiculum to mPFC, urethane-anesthetized rat
Method: (§1) Experiments were performed on n=10 adult male Sprague-Dawley rats (275–305 g) under urethane anesthesia (1.5 g/kg, i.p.). The femoral vein was cannulated for i.v. administration of drugs. A stimulation electrode was placed in the CA1/subiculum region (coordinates: A-P = +6.3 mm, M–L = +5.2 mm, D-V = +8.0 mm) using stereotactic methods and unilateral local field potential (LFP) was recorded by a metal monopolar macroelectrode placed into the medial PFC (mPFC; coordinates: A-P = +3.0 mm, M-L = +0.6 mm, D-V = +5.0 mm). […] Evoked responses to the first and the second stimuli were identified (P1 and P2, respectively) and the amount of PPF determined by the formula: (P2 amplitude/P1 amplitude). Waveform averages used to calculate PPF consisted of 60 consecutive stimuli. Five minutes were allowed between administration of each drug dose and the starting of the subsequent average of each 10-min period after each cumulative dose (0.1–1 mg/kg, IV). Disruption in power of LFP delta activity was measured as the percentage of power in low frequency (0–1.8 Hz) irregular activity in the total (0–4 Hz) delta power range. LFP power spectra were determined during periods concurrent with waveform averages and PPF calculation. Statistical significance was determined by means of two-tailed paired Student’s t-test.

[2] = system: mPFC low frequency delta activity; test: mPFC low frequency delta field potential oscillation power, anesthetized rat
Method: as §1

[3] = system: acetylcholine levels in the PFC of WT and D1 KO mice; test: Prefrontal cortex acetylcholine levels via microdialysis, WT and D1 KO mouse; conditions: SCH-23390 0.32 mg/kg SC, mice
Source text: Adult male Sprague-Dawley rats (280–360 g) were obtained from Charles-River Laboratories, Raleigh, NC and male C57BL/6J DRD1a WT and D1 DA receptor knockout mice (DRD1a-905781) were obtained from The Jackson Laboratories (Bar Harbor, ME). Animals were housed on a 12-h light/dark cycle with free access to food and water and allowed to acclimate for at least 5 d after arrival. Aseptic technique was used during the surgical procedure in order to prevent infection. On the day of the procedure animals were anesthetized with isoflurane (4%) and their heads shaved. The animals were then placed into a Kopf stereotaxic frame, the surgical area disinfected by swabbing with Provodine solution, and the area isolated with a sterile surgical drape. Anesthesia was maintained with isoflurane (2.5%–3%) delivered through a nose cone using a Univentor 400 anesthesia unit. Animals were given a 0.1 ml subcutaneous (s.c.) injection of Metacam (NSAID, meloxicam, 5 mg/ml, Boehringer Ingelheim) as a post-operative analgesic. Marcaine (bupivacaine, 0.5%, Hospira, Lake Forest, IL), a long acting local anesthetic, was administered s.c. at the surgical area to minimize pain and discomfort.
A 1.5–2 cm incision was made along the midline of the skull, beginning from a point just behind the eyes and running posterior. The skin was retracted with hemostats and the skull was further exposed using blunt dissection with cotton swabs. Bleeding capillaries were cauterized, and the skull dried with a sterile gauze sponge.
A microdialysis guide cannula [Bioanalytical Systems Inc (BAS), West Lafayette, IN, part # MD-2251] was placed into a guide holder on the stereotaxic frame and positioned over “Bregma”. The guide cannula was positioned over the PFC (A-P, +3.2 mm; M-L, +0.7 mm, left, relative to bregma) and the location marked on the skull. Using a 0.7 mm burr, a hole was made in the skull at the cannula position. […]
For conventional analysis, ACh was analyzed by high performance liquid chromatography (HPLC) utilizing a modification of the BAS ACh-choline assay kit (BAS part # MF-8910). […]

[4] = system: prepulse inhibition of startle; test: Mouse prepulse inhibition (PPI) and acoustic startle; conditions: risperidone 0.56 mg/kg s.c., C57BL/6J mice
Method: Drug and behaviorally naïve adult male C57BL/6J mice (9–11 weeks of age; n=8 per dose group) were used for PPI experiments. Subjects were tested individually in SR-Lab acoustic startle chambers (San Diego Instruments, San Diego CA, USA) equipped with a restrainer mounted atop a piezoelectric accelerometer which measured transduced movement in response to the presentation of audio stimuli presented through a speaker mounted 20 cm above the animal. Subjects were acclimated to an anteroom adjacent to the testing room at minimum 60 min prior to testing. Test sessions began with a 5 min acclimation period to background noise (65 dB) followed by presentation of six randomized repetitions of the 120 dB startle stimulus (40 ms duration) presented alone or paired in combination with a pre-pulse stimulus of 68, 72, or 74 db (20 msec in duration) presented 80 msec prior to the 120 dB startle stimulus, which was equivalent to +3, +7, and +9 db over background noise, respectively. Data were also recorded for no stimulus values to evaluate background level of response. The inter-trial interval between stimulus presentations was randomized and ranged from 10 to 20 s. Test compounds were administered 30 min (s.c.) prior to testing. […] Percent PPI was calculated for each individual subject as the relative change in the 120 dB startle response in the presence of each prepulse intensity using the formula: 100-((prepulse-pulse)/pulse)*100 as previously described ([Ralph-Williams et al., 2003]).
The experiment was analyzed using a two-way mixed model ANOVA (lme4 library in R software). The model included prepulse stimulus intensity levels, treatment (as all combinations of pre-treatment and treatment), and their interaction as fixed factors and random intercept, random slope for each animal as random factors. […] In order to adjust for multiple hypothesis testing we used false discover rate method which controls the expected proportion of false discoveries among the rejected hypotheses. For all statistical tests, p < 0.05 between groups was considered significant.

[5] = system: conditioned avoidance responding; test: Rat conditioned avoidance response (CAR)
Method: The CAR assay was performed under similar conditions previously described ([Marquis et al., 2011]) at WuXiAppTec Inc. (Delin Rd. #90, Waigaoquiao Free Trade Zone, Shanghai 200131, China). For this study, adult male Fisher-344 rats were trained and tested in a two-way active avoidance apparatus with MED-PC software (MED Associates, St. Albans, VT, USA).
Briefly, subjects were handled and acclimated to the shuttle boxes for 2 d prior to training sessions. During training sessions, subjects were trained to avoid an electric footshock by moving to the adjacent, non-stimulus side of the shuttle box upon presentation of tone + light stimuli which preceded the presentation of the footshock (0.6 mA, 10 s duration) by 10 s. For this assay an avoidance was defined as moving to the adjacent compartment during the tone+light presentation that preceded the shock, an escape was defined as moving to the adjacent compartment upon presentation of the shock, and an escape failure was defined as a lack of relocation to the adjacent compartment throughout the presentation of the shock. Subjects received 30 trials of training per day for 5 d. Subjects with ≥ 80% avoidance responses on two consecutive days with no escape failures, were considered qualified for testing, and were randomized across treatment groups (n=8–9 per treatment group). […] Avoidance responding was calculated as % of the number of total trials in which an avoidance occurred. Data were calculated for each animal and compared across treatment groups using one-way ANOVA with Dunnett’s post-test versus the vehicle + vehicle treated group.

In the case of `NC[C@@H]1O[C@H](C23CC4CC(CC(C4)C2)C3)Cc2c1ccc(O)c2O` [A-77636, reference compound], the “locomotor activity, five consecutive days of dosing” value (mouse locomotor activity; 3.2 mg/kg s.c. daily, CD-1 mice) is reported as “increased locomotor activity”.

In the case of `C[C@]12N[C@H](Cc3ccccc31)c1ccccc12` [MK-801], the “increase of P1 response amplitude” value ([1]; MK-801 0.1 mg/kg IV) is reported as 44%, the “increase of P2 response amplitude” value ([1]; MK-801 0.1 mg/kg IV) is reported as 10% and the PPF ([1]; MK-801 0.1 mg/kg IV (p=0.04)) is reported as “significant decrease”. The “low frequency (0-1.8 Hz) irregular delta activity” value ([2]; MK-801 0.1 mg/kg IV (p=0.01)) was “significant increase”.

`CN1CCc2cc(Cl)c(O)cc2[C@@H](c2ccccc2)C1` [SCH-23390, reference compound] was tested, and the “effect on PF-6142-induced increase in PFC ACh level” value [3] was “attenuated”, the “effect on PF-6142-increased activity in WT mice” value (mouse locomotor activity; SCH-23390 0.032 mg/kg s.c. pretreatment) was “attenuated” and the “effect on PF-6142 (10 mg/kg s.c.)-stimulated activity” value (mouse locomotor activity; SCH-23390 pretreatment 0.01, 0.032, 0.1, 0.32 mg/kg s.c.) was “blocked”. The “baseline P1 and P2 response amplitudes” value ([1]; SCH-23390 0.32 mg/kg IV) was “no effect”, the “control PPF” value ([1]; SCH-23390 0.32 mg/kg IV (p=0.06)) was “no impact” and the “effect on PF-6142 (1-3 mg/kg IV) reversal of MK-801 effects on PPF” value ([1]; SCH-23390 0.32 mg/kg IV pretreatment) was “block”. For the same molecule, the “mPFC low frequency delta activity” value ([2]; SCH-23390 0.32 mg/kg IV alone (p=0.19)) was “no significant effect”.

`Cc1nc2n(c(=O)c1CCN1CCC(c3noc4cc(F)ccc34)CC1)CCCC2` [risperidone, reference compound] was tested, and the “%PPI” value [4] was “produced an increase in %PPI”, the “mean % avoidance responses” value ([5]; risperidone 0.1 mg/kg s.c.) was 83.33% and the “mean % avoidance responses” value ([5]; risperidone 0.56 mg/kg s.c. (p<0.001)) was 6.875%.
